According to patent US12655126B2, “Imidazole-pyrazole derivatives as antibacterials” (Hoffmann-La Roche Inc., priority 2020, dated 2026):
Structures can show the parent of a compound that is named as a salt.

Test system: Acinetobacter baumannii ATCC17961
Assay: Antimicrobial susceptibility testing: 90% growth inhibitory concentration (IC90) determination
Assay type: cell-based
Conditions: Acinetobacter baumannii ATCC17961; Iso-Sensitest broth; growth by OD 600 nm over 16 h; 90% growth inhibitory concentration; read-out: ATCC 17961 IC90
Experimental: Antimicrobial Susceptibility Testing:
90% Growth Inhibitory Concentration (IC90) Determination
The in vitro antimicrobial activity of the compounds was determined according to the following procedure:
The assay used a 10-points Iso-Sensitest broth medium to measure quantitatively the in vitro activity of the compounds against Acinetobacter baumannii ATCC17961.
Stock compounds in DMSO were serially twofold diluted (e.g. range from 50 to 0.097 μM final concentration) in 384 wells microtiter plates and inoculated with 49 μl the bacterial suspension in Iso-Sensitest medium to have a final cell concentration of ˜5×10^(5) CFU/ml in a final volume/well of 50 ul/well. Microtiter plates were incubated at 35±2° C.
Bacterial cell growth was determined with the measurement of optical density at λ=600 nm each minutes over a time course of 16 h. Growth inhibition was calculated during the logarithmic growth of the bacterial cells with determination of the concentration inhibiting 50% (IC50) and 90% (IC90) of the growth.
Table 1 provides the 90% growth inhibitory concentrations (IC90) in micromoles per liter of the compounds of present invention obtained against the strain Acinetobacter baumannii ATCC17961.

| Compound | IC90 |
| --- | --- |
| Cn1c(-c2cn(-c3ncccn3)nc2C(F)(F)F)cnc1C(=O)Nc1ccc(C(=O)N2CCN(C(=O)[C@@H]3C[C@@H](O)C[N+]3(C)C)CC2)c(Cl)c1 [Example B2, N-[3-chloro-4-[4-[(2S,4R)-4-hydroxy-1,1-dimethyl-pyrrolidin-1-ium-2-carbonyl]piperazine-1-carbonyl]phenyl]-1-methyl-5-[1-pyrimidin-2-yl-3-(trifluoromethyl)pyrazol-4-yl]imidazole-2-carboxamide; formate] | 1600 nM |
| Cn1c(-c2cn(-c3ncccn3)nc2C(F)(F)F)cnc1C(=O)Nc1ccc(C(=O)N2CCN(C(=O)C3CC[N+](C)(C)CC3O)CC2)c(Cl)c1 (stereo not drawn) [Example B4, N-[3-chloro-4-[4-(3-hydroxy-1,1-dimethyl-piperidin-1-ium-4-carbonyl)piperazine-1-carbonyl]phenyl]-1-methyl-5-[1-pyrimidin-2-yl-3-(trifluoromethyl)pyrazol-4-yl]imidazole-2-carboxamide; formate] | 1900 nM |
| Cn1c(-c2cn(-c3ncc(N)cc3F)nc2C(F)(F)F)cnc1C(=O)Nc1ccc(C(=O)N2CCN(C(=O)C3CC[N+](C)(C)CC3)CC2)c(Cl)c1 [Example A8, 5-[1-(5-amino-3-fluoro-2-pyridyl)-3-(trifluoromethyl)pyrazol-4-yl]-N-[3-chloro-4-[4-(1,1-dimethylpiperidin-1-ium-4-carbonyl)piperazine-1-carbonyl]phenyl]-1-methyl-imidazole-2-carboxamide] | 330 nM |
| Cn1c(-c2cn(-c3ccc(N)cn3)nc2C(F)(F)F)cnc1C(=O)Nc1ccc(C(=O)N[C@H]2[C@@H]3CN(C(=O)[C@@H]4C[C@@H](O)C[N+]4(C)C)C[C@@H]32)c(Cl)c1 [Example D17, 5-[1-(5-amino-2-pyridyl)-3-(trifluoromethyl)pyrazol-4-yl]-N-[3-chloro-4-[[(exo)-3-[(2S,4R)-4-hydroxy-1,1-dimethyl-pyrrolidin-1-ium-2-carbonyl]-3-azabicyclo[3.1.0]hexan-6-yl]carbamoyl]phenyl]-1-methyl-imidazole-2-carboxamide] | 300 nM |
| Cn1c(-c2cn(-c3ccc([N+](=O)[O-])cn3)nc2C(F)(F)F)cnc1C(=O)Nc1ccc(C(=O)N2CCN(C(=O)[C@@H]3[C@@H](O)CC[N+]3(C)C)CC2)c(Cl)c1 [Example B7, N-[3-chloro-4-[4-[(2S,3S)-3-hydroxy-1,1-dimethyl-pyrrolidin-1-ium-2-carbonyl]piperazine-1-carbonyl]phenyl]-1-methyl-5-[1-(5-nitro-2-pyridyl)-3-(trifluoromethyl)pyrazol-4-yl]imidazole-2-carboxamide; formate] | 1600 nM |
| Cn1c(-c2cn(-c3ncccn3)nc2C(F)(F)F)cnc1C(=O)Nc1ccc(C(=O)N2CCN(C(=O)[C@@H]3[C@@H](O)CC[N+]3(C)C)CC2)c(Cl)c1 [Example B3, N-[3-chloro-4-[4-[(2S,3S)-3-hydroxy-1,1-dimethyl-pyrrolidin-1-ium-2-carbonyl]piperazine-1-carbonyl]phenyl]-1-methyl-5-[1-pyrimidin-2-yl-3-(trifluoromethyl)pyrazol-4-yl]imidazole-2-carboxamide; formate] | 3800 nM |
| Cn1c(-c2cn(-c3cnc(N)cn3)nc2C(F)(F)F)cnc1C(=O)Nc1ccc(C(=O)N2CCN(C(=O)C3CC[N+](C)(C)CC3)CC2)c(Cl)c1 [Example D16, 5-[1-(5-aminopyrazin-2-yl)-3-(trifluoromethyl)pyrazol-4-yl]-N-[3-chloro-4-[4-(1,1-dimethylpiperidin-1-ium-4-carbonyl)piperazine-1-carbonyl]phenyl]-1-methyl-imidazole-2-carboxamide] | 320 nM |
| Cc1nc(-n2cc(-c3cnc(C(=O)Nc4ccc(C(=O)N5CCN(C(=O)C6CC[N+](C)(C)CC6)CC5)c(Cl)c4)n3C)c(C(F)(F)F)n2)ccc1N [Example A11, 5-[1-(5-amino-6-methyl-2-pyridyl)-3-(trifluoromethyl)pyrazol-4-yl]-N-[3-chloro-4-[4-(1,1-dimethylpiperidin-1-ium-4-carbonyl)piperazine-1-carbonyl]phenyl]-1-methyl-imidazole-2-carboxamide] | 230 nM |
| COc1ccc(-n2cc(-c3cnc(C(=O)Nc4ccc(C(=O)N5CCN(C(=O)C[N+]6(C)CC[C@@H](O)C6)CC5)c(Cl)c4)n3C)c(C(F)(F)F)n2)nc1 (stereo partly drawn) [Example A7, N-[3-chloro-4-[4-[2-[(3R)-3-hydroxy-1-methyl-pyrrolidin-1-ium-1-yl]acetyl]piperazine-1-carbonyl]phenyl]-5-[1-(5-methoxy-2-pyridyl)-3-(trifluoromethyl)pyrazol-4-yl]-1-methyl-imidazole-2-carboxamide; formate] | 550 nM |

Results, then the molecule that gave them:

| IC90 | Compound |
| --- | --- |
| 550 nM | Cn1c(-c2cn(-c3ccc(N)cn3)nc2C(F)(F)F)cnc1C(=O)Nc1ccc(C(=O)N2CCN(C(=O)[C@@H]3CC(O)CC[N+]3(C)C)CC2)c(Cl)c1 (stereo partly drawn) [Example D15, 5-[1-(5-Amino-2-pyridyl)-3-(trifluoromethyl)pyrazol-4-yl]-N-[3-chloro-4-[4-[(2S)-4-hydroxy-1,1-dimethyl-piperidin-1-ium-2-carbonyl]piperazine-1-carbonyl]phenyl]-1-methyl-imidazole-2-carboxamide;formate] |
| 370 nM | Cn1c(-c2cn(-c3ccc(N)cn3)nc2C(F)(F)F)cnc1C(=O)Nc1ccc(C(=O)N2CCN(C(=O)[C@@H]3CC[N+](C)(C)C[C@H]3O)CC2)c(Cl)c1 (stereo in doubt) [Example D6, 5-[1-(5-amino-2-pyridyl)-3-(trifluoromethyl)pyrazol-4-yl]-N-[3-chloro-4-[4-[(3S,4R)-3-hydroxy-1,1-dimethyl-piperidin-1-ium-4-carbonyl]piperazine-1-carbonyl]phenyl]-1-methyl-imidazole-2-carboxamide; formate] |
| 1100 nM | Cn1c(-c2cn(-c3ncccn3)nc2C(F)(F)F)cnc1C(=O)Nc1ccc(C(=O)N2CCN(C(=O)C3CC[N+](C)(CC(N)=O)CC3)CC2)c(Cl)c1 (stereo not drawn) [Example C2, N-[4-[4-[1-(2-amino-2-oxo-ethyl)-1-methyl-piperidin-1-ium-4-carbonyl]piperazine-1-carbonyl]-3-chloro-phenyl]-1-methyl-5-[1-pyrimidin-2-yl-3-(trifluoromethyl)pyrazol-4-yl]imidazole-2-carboxamide; formate] |
| 9830 nM | Cn1c(-c2cn(-c3ccc(N)cn3)nc2C#N)cnc1C(=O)Nc1ccc(C(=O)N2CCN(C(=O)C3CC[N+](C)(C)CC3)CC2)c(Cl)c1 [Example J2, 5-[1-(5-amino-2-pyridyl)-3-cyano-pyrazol-4-yl]-N-[3-chloro-4-[4-(1,1-dimethylpiperidin-1-ium-4-carbonyl)piperazine-1-carbonyl]phenyl]-1-methyl-imidazole-2-carboxamide; 2,2,2-trifluoroacetate] |
| 400 nM | Cn1c(-c2cn(-c3ccc(N)cn3)nc2C(F)(F)F)cnc1C(=O)Nc1ccc(C(=O)N2CCN(C(=O)[C@H]3CC[N+](C)(C)C[C@H]3O)CC2)c(Cl)c1 (stereo in doubt) [Example D7, 5-[1-(5-amino-2-pyridyl)-3-(trifluoromethyl)pyrazol-4-yl]-N-[3-chloro-4-[4-[(3S,4S)-3-hydroxy-1,1-dimethyl-piperidin-1-ium-4-carbonyl]piperazine-1-carbonyl]phenyl]-1-methyl-imidazole-2-carboxamide; formate] |
| 400 nM | Cn1c(-c2cn(-c3ccc(N)cn3)nc2C(F)(F)F)cnc1C(=O)Nc1ccc(C(=O)N2CCN(C(=O)[C@@H]3[C@@H](O)CC[N+]3(C)C)CC2)c(Cl)c1 (racemic) [Example D2, 5-[1-(5-amino-2-pyridyl)-3-(trifluoromethyl)pyrazol-4-yl]-N-[3-chloro-4-[4-[(2S,3S)-3-hydroxy-1,1-dimethyl-pyrrolidin-1-ium-2-carbonyl]piperazine-1-carbonyl]phenyl]-1-methyl-imidazole-2-carboxamide; formate] |
| 330 nM | CNC(=O)CCNc1ccc(-n2cc(-c3cnc(C(=O)Nc4ccc(C(=O)N5CCN(C(=O)C6CC[N+](C)(C)CC6)CC5)c(Cl)c4)n3C)c(C(F)(F)F)n2)nc1 [Example L2, N-[3-chloro-4-[4-(1,1-dimethylpiperidin-1-ium-4-carbonyl)piperazine-1-carbonyl]phenyl]-5-[1-[5-[[3-keto-3-(methylamino)propyl]amino]-2-pyridyl]-3-(trifluoromethyl)pyrazol-4-yl]-1-methyl-imidazole-2-carboxamide] |

Same assay, conditions: Acinetobacter baumannii, ATCC17961, 16 h, read-out: ATCC 17961 IC90

| Compound | IC90 |
| --- | --- |
| Cn1c(-c2cn(-c3ccc(N)nn3)nc2C(F)(F)F)cnc1C(=O)Nc1ccc(C(=O)N2CCN(C(=O)C3CC[N+](C)(C)CC3)CC2)c(Cl)c1 [Example K1, 5-[1-(6-Aminopyridazin-3-yl)-3-(trifluoromethyl)pyrazol-4-yl]-N-[3-chloro-4-[4-(1,1-dimethylpiperidin-1-ium-4-carbonyl)piperazine-1-carbonyl]phenyl]-1-methyl-imidazole-2-carboxamide; 2,2,2-trifluoroacetate] | 1600 nM |
| Cn1c(-c2cn(-c3ccc(NCCN)cn3)nc2C(F)(F)F)cnc1C(=O)Nc1ccc(C(=O)N2CCN(C(=O)C3CC[N+](C)(C)CC3)CC2)c(Cl)c1 [Example M1, 5-[1-[5-(2-aminoethylamino)-2-pyridyl]-3-(trifluoromethyl)pyrazol-4-yl]-N-[3-chloro-4-[4-(1,1-dimethylpiperidin-1-ium-4-carbonyl)piperazine-1-carbonyl]phenyl]-1-methyl-imidazole-2-carboxamide; 2,2,2-trifluoroacetic acid; 2,2,2-trifluoroacetate] | 100 nM |
